Laboratory results taken from patent US4864023A, “Pyrido(3,2,1-IJ)-1,3,4-benzoxadiazine derivatives” (priority 1988, dated 1989).
Converted amounts (≈) assume the structure as drawn. Like-named read-outs stand apart in the source and are kept apart here.

Columns and labels:
Assay in all cases: in vitro antibacterial activity, standard agar dilution method
Type in all cases: cell-based
[1] = system: Bacillus subtilis PCI 219; settings: PCI219, aerobic, read-out: minimum inhibitory concentration (MIC)
[2] = system: Staphylococcus aureus FDA 209P JC-1; settings: FDA209P, read-out: minimum inhibitory concentration (MIC)
[3] = system: Staphylococcus aureus NR 2855
[4] = system: Staphylococcus aureus Smith; settings: Staphylococcus aureus Smith; aerobic; agar dilution; read-out: minimum inhibitory concentration (MIC)
[5] = system: Staphylococcus epidermidis IFO 12993; settings: IFO12993, aerobic, read-out: minimum inhibitory concentration (MIC)
[6] = system: Staphylococcus epidermidis NR 2942; settings: NR2942, aerobic, read-out: minimum inhibitory concentration (MIC)
[7] = system: Enterococcus faecalis NR 2943; settings: NR2943, aerobic, read-out: minimum inhibitory concentration (MIC)
[8] = system: Alcaligenes faecalis IFO 13111; settings: IFO13111, aerobic, read-out: minimum inhibitory concentration (MIC)
[9] = system: Citrobacter freundii IFO 12681; settings: IFO12681, aerobic, read-out: minimum inhibitory concentration (MIC)
[10] = system: Enterobacter aerogenes NR 2945; settings: Klebsiella aerogenes, NR2945, aerobic, read-out: minimum inhibitory concentration (MIC)
[11] = system: Enterobacter cloacae NR 2946; settings: NR2946, aerobic, read-out: minimum inhibitory concentration (MIC)
[12] = system: Escherichia coli NIHJ JC-2; settings: NIHJJC2, aerobic, read-out: minimum inhibitory concentration (MIC)
Escherichia coli NR 2630 = settings: NR2630; Escherichia coli NR 2630; aerobic; agar dilution; read-out: minimum inhibitory concentration (MIC)
[13] = system: Klebsiella pneumoniae FDA PCI 602; settings: FDAPCI602, aerobic, read-out: minimum inhibitory concentration (MIC)
[14] = system: Bordetella bronchiseptica ATCC 4617; settings: ATCC4617, aerobic, read-out: minimum inhibitory concentration (MIC)
[15] = system: Proteus rettgeri ATCC 14505; settings: Providencia rettgeri, ATCC14505, aerobic, read-out: minimum inhibitory concentration (MIC)
[16] = system: Proteus vulgaris OX19 ATCC 6898; settings: ATCC6898, aerobic, read-out: minimum inhibitory concentration (MIC)
[17] = system: Pseudomonas aeruginosa A3; settings: aerobic, read-out: minimum inhibitory concentration (MIC)
[18] = system: Pseudomonas aeruginosa NR 2950; settings: NR2950, aerobic, read-out: minimum inhibitory concentration (MIC)
[19] = system: Serratia marcescens IFO 12648; settings: IFO12648, aerobic, read-out: minimum inhibitory concentration (MIC)
[20] = system: Salmonella typhimurium IFO 12529; settings: Salmonella enterica, aerobic, read-out: minimum inhibitory concentration (MIC)
[21] = Staphylococcus aureus FDA 209P JC-1, aerobic, agar dilution
[22] = NR2855, Staphylococcus aureus NR 2855, aerobic, agar dilution, read-out: minimum inhibitory concentration (MIC)

| Compound | MIC [1] | MIC [2, 21] | MIC [4] | MIC [5] | MIC [6] | MIC [7] | MIC [8] | MIC [9] | MIC [10] | MIC [11] | MIC [12] | MIC (Escherichia coli NR 2630) | MIC [13] | MIC [14] | MIC [15] | MIC [16] | MIC [17] | MIC [18] | MIC [19] | MIC [20] | other results |
| --- | --- | --- | --- | --- | --- | --- | --- | --- | --- | --- | --- | --- | --- | --- | --- | --- | --- | --- | --- | --- | --- |
| C=CCN1CCN(c2c(F)cc3c(=O)c(C(=O)O)cn4c3c2OCN4C)CC1 [Example 46] | 0.05 µg/mL (≈ 0.129 µM) | 0.78 µg/mL (≈ 2.01 µM) | 0.39 µg/mL (≈ 1 µM) | 0.78 µg/mL (≈ 2.01 µM) | 0.39 µg/mL (≈ 1 µM) | 6.25 µg/mL (≈ 16.1 µM) | 1.56 µg/mL (≈ 4.02 µM) | 0.1 µg/mL (≈ 0.257 µM) | 0.1 µg/mL (≈ 0.257 µM) | 0.2 µg/mL (≈ 0.515 µM) | 0.1 µg/mL (≈ 0.257 µM) | 0.05 µg/mL (≈ 0.129 µM) | 0.78 µg/mL (≈ 2.01 µM) | 0.39 µg/mL (≈ 1 µM) | 1.56 µg/mL (≈ 4.02 µM) | 0.05 µg/mL (≈ 0.129 µM) | 1.56 µg/mL (≈ 4.02 µM) | 6.25 µg/mL (≈ 16.1 µM) | 0.39 µg/mL (≈ 1 µM) | 0.1 µg/mL (≈ 0.257 µM) | MIC [3, 22]: 0.39 µg/mL (≈ 1 µM) |
| CN1COc2c(N3CCS(=O)(=O)CC3)c(F)cc3c(=O)c(C(=O)O)cn1c23 [Example 39, 10-(1,1-dioxide-4-thiomorpholinyl)-9-fluoro-3-methyl-7-oxo-2,3-dihydro-7H-pyrido[3,2,1-ij]-1,3,4-benzoxadiazine-6-carboxylic acid] | 0.025 µg/mL (≈ 0.0629 µM) | 0.39 µg/mL (≈ 0.981 µM) | 0.39 µg/mL (≈ 0.981 µM) | 0.39 µg/mL (≈ 0.981 µM) | 0.39 µg/mL (≈ 0.981 µM) | 12.5 µg/mL (≈ 31.5 µM) | 6.25 µg/mL (≈ 15.7 µM) | 0.78 µg/mL (≈ 1.96 µM) | 0.05 µg/mL (≈ 0.126 µM) | 0.78 µg/mL (≈ 1.96 µM) | 0.78 µg/mL (≈ 1.96 µM) | 0.025 µg/mL (≈ 0.0629 µM) | 1.56 µg/mL (≈ 3.93 µM) | 0.78 µg/mL (≈ 1.96 µM) | 3.13 µg/mL (≈ 7.88 µM) | 0.05 µg/mL (≈ 0.126 µM) | 3.13 µg/mL (≈ 7.88 µM) | 12.5 µg/mL (≈ 31.5 µM) | 1.56 µg/mL (≈ 3.93 µM) | 0.2 µg/mL (≈ 0.503 µM) | MIC [3, 22]: 0.78 µg/mL (≈ 1.96 µM) |
| CCCN1CCN(c2c(F)cc3c(=O)c(C(=O)O)cn4c3c2OCN4C)CC1 [Example 43] | 0.1 µg/mL (≈ 0.256 µM) | 0.78 µg/mL (≈ 2 µM) | 0.39 µg/mL (≈ 0.999 µM) | 0.39 µg/mL (≈ 0.999 µM) | 0.39 µg/mL (≈ 0.999 µM) | 6.25 µg/mL (≈ 16 µM) | 0.78 µg/mL (≈ 2 µM) | 0.1 µg/mL (≈ 0.256 µM) | 0.1 µg/mL (≈ 0.256 µM) | 0.1 µg/mL (≈ 0.256 µM) | 0.1 µg/mL (≈ 0.256 µM) | 0.05 µg/mL (≈ 0.128 µM) | 0.39 µg/mL (≈ 0.999 µM) | 0.39 µg/mL (≈ 0.999 µM) | 0.78 µg/mL (≈ 2 µM) | 0.1 µg/mL (≈ 0.256 µM) | 0.78 µg/mL (≈ 2 µM) | 6.25 µg/mL (≈ 16 µM) | 0.2 µg/mL (≈ 0.512 µM) | 0.1 µg/mL (≈ 0.256 µM) | MIC [3, 22]: 0.78 µg/mL (≈ 2 µM) |
| CN1COc2c(N3CCN(CC(=O)c4ccccc4)CC3)c(F)cc3c(=O)c(C(=O)O)cn1c23 [Example 41] | 3.13 µg/mL (≈ 6.71 µM) | 6.25 µg/mL (≈ 13.4 µM) | 6.25 µg/mL (≈ 13.4 µM) | 6.25 µg/mL (≈ 13.4 µM) | 12.5 µg/mL (≈ 26.8 µM) | 100 µg/mL (≈ 214 µM) | 50 µg/mL (≈ 107 µM) | 0.39 µg/mL (≈ 0.836 µM) | 0.1 µg/mL (≈ 0.214 µM) | 0.78 µg/mL (≈ 1.67 µM) | 0.78 µg/mL (≈ 1.67 µM) | 0.39 µg/mL (≈ 0.836 µM) | 3.13 µg/mL (≈ 6.71 µM) | 25 µg/mL (≈ 53.6 µM) | 3.13 µg/mL (≈ 6.71 µM) | 1.56 µg/mL (≈ 3.34 µM) | 3.13 µg/mL (≈ 6.71 µM) | 12.5 µg/mL (≈ 26.8 µM) | 3.13 µg/mL (≈ 6.71 µM) | 0.78 µg/mL (≈ 1.67 µM) | MIC [3, 22]: 6.25 µg/mL (≈ 13.4 µM) |
| CC(=O)N1CCN(c2c(F)cc3c(=O)c(C(=O)O)cn4c3c2OCN4C)CC1 [Example 50, 10-(4-acetyl-1-piperazinyl)-9-fluoro-3-methyl-7-oxo-2,3-dihydro-7H-pyrido[3,2,1-ij]-1,3,4-benzoxadiazine-6-carboxylic acid] | 0.0065 µg/mL (≈ 0.0167 µM) | – | 0.1 µg/mL (≈ 0.256 µM) | 0.39 µg/mL (≈ 0.999 µM) | 0.2 µg/mL (≈ 0.512 µM) | 3.13 µg/mL (≈ 8.02 µM) | 12.5 µg/mL (≈ 32 µM) | 3.13 µg/mL (≈ 8.02 µM) | 0.78 µg/mL (≈ 2 µM) | 1.56 µg/mL (≈ 4 µM) | 1.56 µg/mL (≈ 4 µM) | 0.2 µg/mL (≈ 0.512 µM) | 6.25 µg/mL (≈ 16 µM) | 3.13 µg/mL (≈ 8.02 µM) | 6.25 µg/mL (≈ 16 µM) | 0.39 µg/mL (≈ 0.999 µM) | 6.25 µg/mL (≈ 16 µM) | 25 µg/mL (≈ 64 µM) | 3.13 µg/mL (≈ 8.02 µM) | 0.78 µg/mL (≈ 2 µM) | MIC ([2]; Staphylococcus aureus): 0.39 µg/mL (≈ 0.999 µM); MIC ([3]; Staphylococcus aureus, NR2855, read-out: minimum inhibitory concentration (MIC)): 0.39 µg/mL (≈ 0.999 µM) |
